The results in this text go back to US11396453B2, “Metal compound having phase transformation and method of preparing the same” (WEBIOTREE CO., LTD, priority 2020, dated 2022).

Data set [1] in a line: Dispersibility evaluation: transmission through PVDF 0.45 μm filter in pH 4.5 buffer, measured by HPLC. The format is physicochemical. The following applies: 38° C. On the procedure: Confirmation Experiment by Difference in Particle Size and Concentration in Weakly Acidic Solvent of Metal Phase Transformation Compound and Peptide (PalGHK)
PVDF 0.45 μm filter is used
Measurement is performed using HPLC with stirring for 24 hours.
Temperature conditions similar to the temperature inside the body (38° C.) is maintained
The solvent is the same as the pH 4.5 buffer, and experiment is performed at 500 or 1000 ppm based on the peptide content of the sample raw material.
Concentration is calculated based on the peptide content (approximately 71%) in the metal compound.
Concentration is calculated based on the peptide content (about 83%) in the peptide (palGHK).

Data set [2] in a line: Particle size by DLS (Zetasizer Nano ZS90). The format is physicochemical. The following applies: dispersant water, 25° C. On the procedure: Instrument: Zetasizer Nano ZS90
The particle size of the powder was measured by Zetasizer of Malvern Panalytical Ltd. (UK) using […], and the particle size was measured after dispersing the sample in tertiary distilled water using the model name NANO ZS ZS90.

As for palmitoyl-GHK [palGHK], the “dispersibility (filter transmission)” value is on record as 0% in data set [1] (500 ppm based on peptide content, time 0 hr); 21.3% in data set [1] (500 ppm based on peptide content, time 2 hr); 27.4% in data set [1] (500 ppm based on peptide content, time 4 hr); 37.6% in data set [1] (500 ppm based on peptide content, time 6 hr); 39.8% in data set [1] (500 ppm based on peptide content, time 8 hr); 37.8% in data set [1] (500 ppm based on peptide content, time 10 hr). Further, the “dispersibility (filter transmission)” value in data set [1] (500 ppm based on peptide content, time 12 hr) was 35.6%; in data set [1] (500 ppm based on peptide content, time 12 hr, listed as peptide), “about 35%”; in data set [1] (1000 ppm based on peptide content, time 0 hr), 0%; in data set [1] (1000 ppm based on peptide content, time 2 hr), 18.7%; in data set [1] (1000 ppm based on peptide content, time 4 hr), 27.8%; in data set [1] (1000 ppm based on peptide content, time 6 hr), 33.2%. In addition, the “dispersibility (filter transmission)” value in data set [1] (1000 ppm based on peptide content, time 8 hr) is 42.9%; in data set [1] (1000 ppm based on peptide content, time 10 hr) it was 47.8%; in data set [1] (1000 ppm based on peptide content, time 12 hr), 47.8%; in data set [1] (1000 ppm based on peptide content, time 12 hr, listed as peptide), “about 47%”. The “average size (DLS) of transmitted particles” value is reported as 13.09 nm in data set [2] (500 ppm) and 12.18 nm in data set [2] (1000 ppm).
